Patent US8440614B2, “Polymer microspheres/nanospheres and encapsulating therapeutic proteins therein” (priority 2000, dated 2013)

Columns and labels:
[1] = Antigenicity by sandwich-type capture ELISA after SCCNC treatment; assay type: binding
Experimental: Experiments were performed to encapsulate tetanus toxoid (TT) and diphtheria toxoid (DT) vaccine antigens in 50:50 PLGA polymer microspheres formed by SCCNC carbon dioxide and propane. In these tests, DT and TT were each separately treated with supercritical carbon dioxide with 10% (v/v) cosolvent ethanol, and near-critical propane in the presence of PLGA. The pressure and temperature were around 3,000 psig and 30-35° C. respectively. The protein and antigenicity activities were performed by micro BCA assay and a sandwich-type capture ELISA [Gupta, R. K., Siber, G. R., Alonso, M. J. and Langer, R., in Modern Approaches To New Vaccines Including Prevention of AIDS. Ed. by Ginsberg, H. S., Brown, F., Chanock, R. M. and Lerner, R. A. Cold Spring Harbor Laboratory, Press, 1993] assay.

[2] = tested on: chronic diabetic BB/W or male rats; assay: In vivo release of insulin: glucose concentration in diabetic rats; conditions: for Effect on glucose levels (in words): bled 0.5 to 16 hrs after treatment
Experimental: A preliminary study with SCCNC polymer nanoencapsulated insulin was conducted in diabetic rats. Three groups of four chronic diabetic BB/W or male rats were used to evaluate efficacy on nanoencapsulated insulin (MS-29). One group [A] was given 2 ml of the test formulation (MS-29) using the standard gavage method. The second group [B] received oral non-encapsulated insulin, administered by gavage at the concentration based on the animals' day of diabetes onset. A third group [C] received injected insulin (PZI, Eli Lilly) therapy at the dose consistent with their day of onset of diabetes. The animals were bled prior to treatment and at 0.5, 1, 2, 4, 8, and 16 hrs after treatment.

[3] = aqueous protein; cited from earlier work
[4] = treated with SCCNC carbon dioxide/ethanol mixtures

| Substance | ELISA (Lf/mL), antigenicity ([1]; toxoid in PLGA microspheres formed by different SCCNC, around 3,000 psig, 30-35° C.) [Lf/mL] | Percent Change in Glucose Concentration ([2]; 0.5 hr post-treatment) | Percent Change in Glucose Concentration ([2]; 1 hr post-treatment) [%] | Percent Change in Glucose Concentration ([2]; 2 hr post-treatment) [%] | Percent Change in Glucose Concentration ([2]; 4 hr post-treatment) | Percent Change in Glucose Concentration ([2]; 8 hr post-treatment) | Percent Change in Glucose Concentration ([2]; 16 hr post-treatment) | Effect on glucose levels (in words) [2] | Antigenicity after treatment (in words) [1, 4] | Antigenicity after treatment (in words) ([1]; treated with near-critical propane) | pH levels at which the toxoid will denature [3] |
| --- | --- | --- | --- | --- | --- | --- | --- | --- | --- | --- | --- |
| 4: Tetanus toxoid, Control [Sample 4] | 9.0 |  |  |  |  |  |  |  |  |  |  |
| Injected Insulin: injected insulin (PZI, Eli Lilly), positive control |  | −47.4% | −62.7 | −71.8 | −37.9% | −48.5% | −37.6% | statistical decrease in glucose levels at all times measured post treatment |  |  |  |
| Oral Insulin: oral non-encapsulated insulin, administered by gavage |  | +2.9% | −4.6 | −24.4 | +2.8% | +7.5% | +47.3% | only showed a statistical decrease in the level of glucose at one time point, 2 hours |  |  |  |
| diphtheria toxoid |  |  |  |  |  |  |  |  | lost most of their antigenicity | did little damage | below 5.0 |
| tetanus toxoid: tetanus toxoid (TT) vaccine antigen |  |  |  |  |  |  |  |  | lost most of their antigenicity |  | below 5.0 |
